Test system: MCF7 cells
Assay: Mammosphere formation in MCF7 cells (rotenone-induced oxidative stress)
Format: cell-based, human
Procedure: Investigation of the mechanism of tumorigenesis may be conducted by transduction of MCF7 cells with c-Myc, H-Ras, or both, and then subjecting the cell lines to phenotypic characterization, such as mammosphere formation. For the mammosphere formation assay inventors employed, a single suspension of MCF7 cells was prepared using enzymatic (lx Trypsin-EDTA, Sigma Aldrich) and manual disaggregation with a 25-gauge needle. Cells were plated at a density of 500 cells/cm^2 in a mammosphere medium (DMEM-F12/B27/20-ng/mlEGF/PenStrep) in non-adherent conditions, in culture dishes coated with 2-hydroxyethylmethacrylate (poly-HEMA, Sigma). Cells were grown for 5 days and maintained in a humidified incubator at 37° C. at an atmospheric pressure in 5% (v/v) carbon dioxide/air. After 5 days in culture, spheres >50 μm were counted using an eye-piece graticule, and the percentage of cells plated which formed spheres was calculated and is referred to as percent mammosphere formation, normalized to vehicle-alone treated controls. Mammosphere assays were performed in triplicate and repeated three times independently.
The inventors hypothesized that c-Myc induces “stemness” of CSCs in part by driving and managing the onset of mitochondrial oxidative stress. To test this hypothesis, inventors used a pharmacological approach to stimulate oxidative stress. Rotenone is a naturally occurring isoflavone that behaves as an inhibitor of complex I and strongly induces mitochondrial oxidative stress. During rotenone treatment, mitochondrial complexes I and III are the major sites of electron leakage, resulting in increased superoxide production. The inventors treated MCF7 cells with increasing concentrations of Rotenone.
To further validate that the effects of low-dose Rotenone were due to oxidative stress, the inventors tested the effects of a mitochondrial-specific antioxidant Mito-tempo. Mito-tempo functions as a reactive oxygen species (ROS) scavenger by targeting superoxide anions generated in mitochondria.

| SMILES | effect on rotenone-stimulated mammosphere formation (MCF7 mammospheres pretreated with rotenone, FIG. 6) | effect on mammosphere formation (higher dose Rotenone, MCF7 cells, FIG. 5) | stimulation of mammosphere formation (low-dose Rotenone, MCF7 cells, FIG. 5) |
| --- | --- | --- | --- |
| CC1(C)CC(NC(=O)C[P+](c2ccccc2)(c2ccccc2)c2ccccc2)CC(C)(C)N1[O] [Mito-tempo] | inhibited the stimulatory effects of rotenone | – | – |
| C=C(C)[C@H]1Cc2c(ccc3c2O[C@@H]2COc4cc(OC)c(OC)cc4[C@@H]2C3=O)O1 [Rotenone] | – | inhibited mammosphere formation | 1.6 to 1.8 fold |

— patent US11561227B2, “Anti-mitochondrial inhibitors for oncogenic Ras and Myc” (LUNELLA BIOTECH, INC., priority 2017, dated 2023)
